# From PubChem BioAssay (NCI)
#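 Method: 48-hour compound exposure of cells in 96-well plates, five concentrations, linear interpolation of endpoints. TGI denotes the concentration required for complete inhibition of growth.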
# Columns and labels:
# Assay in all cases: DTP human tumour cell line panel, 48 h
# SK-MEL-5 melanoma = tested on: SK-MEL-5 melanoma
# UACC-62 melanoma = tested on: UACC-62 melanoma
# TK-10 renal = tested on: TK-10 renal
# OVCAR-8 ovarian = tested on: OVCAR-8 ovarian
# CCRF-CEM leukemia = tested on: CCRF-CEM leukemia
# HCT-116 colon = tested on: HCT-116 colon
# OVCAR-4 ovarian = tested on: OVCAR-4 ovarian
# COLO 205 colon = tested on: COLO 205 colon
# UO-31 renal = tested on: UO-31 renal
# MALME-3M melanoma = tested on: MALME-3M melanoma
# SR leukemia = tested on: SR leukemia
# SN12C renal = tested on: SN12C renal
# K-562 leukemia = tested on: K-562 leukemia
# ACHN renal = tested on: ACHN renal
# A498 renal = tested on: A498 renal
# HOP-62 NSCLC = tested on: HOP-62 NSCLC
# MDA-N = tested on: MDA-N
# DU-145 prostate = tested on: DU-145 prostate
# 786-0 renal = tested on: 786-0 renal
# NCI-H23 lung = tested on: NCI-H23 lung
# HS 578T breast = tested on: HS 578T breast
# NCI/ADR-RES ovarian = tested on: NCI/ADR-RES ovarian
# HCC-2998 colon = tested on: HCC-2998 colon
# NCI-H226 lung = tested on: NCI-H226 lung
# A549 NSCLC = tested on: A549 NSCLC
# MDA-MB-231 breast = tested on: MDA-MB-231 breast
# CAKI-1 renal = tested on: CAKI-1 renal
# NCI-H460 lung = tested on: NCI-H460 lung
# OVCAR-5 ovarian = tested on: OVCAR-5 ovarian
# MOLT-4 leukemia = tested on: MOLT-4 leukemia
# KM12 colon = tested on: KM12 colon
# SF-268 CNS = tested on: SF-268 CNS
# IGROV1 ovarian = tested on: IGROV1 ovarian
# SF-295 CNS = tested on: SF-295 CNS
# EKVX NSCLC = tested on: EKVX NSCLC
# LOX IMVI melanoma = tested on: LOX IMVI melanoma
# SK-MEL-2 melanoma = tested on: SK-MEL-2 melanoma
# UACC-257 melanoma = tested on: UACC-257 melanoma
# HCT-15 colon = tested on: HCT-15 colon
# MDA-MB-435 = tested on: MDA-MB-435
# OVCAR-3 ovarian = tested on: OVCAR-3 ovarian
# SW-620 colon = tested on: SW-620 colon
# RPMI-8226 leukemia = tested on: RPMI-8226 leukemia
# U251 CNS = tested on: U251 CNS
# HOP-92 NSCLC = tested on: HOP-92 NSCLC
# M14 melanoma = tested on: M14 melanoma
# SK-MEL-28 melanoma = tested on: SK-MEL-28 melanoma
# PC-3 prostate = tested on: PC-3 prostate
# NCI-H522 lung = tested on: NCI-H522 lung
# SF-539 CNS = tested on: SF-539 CNS
# SNB-75 CNS = tested on: SNB-75 CNS
# BT-549 breast = tested on: BT-549 breast
# HT29 colon = tested on: HT29 colon
# SNB-19 CNS = tested on: SNB-19 CNS
# HL-60(TB) leukemia = tested on: HL-60(TB) leukemia
# RXF 393 renal = tested on: RXF 393 renal
# MCF7 breast = tested on: MCF7 breast
compound,measurement,setting,value
CC(=O)ON(C(C)=O)c1ccc(-c2nc3ccccc3s2)cc1C,TGI,SK-MEL-5 melanoma,> 100 µM
same,TGI,UACC-62 melanoma,> 100 µM
same,TGI,TK-10 renal,> 100 µM
same,TGI,OVCAR-8 ovarian,> 100 µM
same,TGI,CCRF-CEM leukemia,> 100 µM
same,TGI,HCT-116 colon,> 100 µM
same,TGI,OVCAR-4 ovarian,> 100 µM
same,TGI,COLO 205 colon,> 100 µM
same,TGI,UO-31 renal,> 100 µM
same,TGI,MALME-3M melanoma,> 100 µM
same,TGI,SR leukemia,> 100 µM
same,TGI,SN12C renal,> 100 µM
same,TGI,K-562 leukemia,> 100 µM
same,TGI,ACHN renal,> 100 µM
same,TGI,A498 renal,16.9 µM
same,TGI,HOP-62 NSCLC,> 100 µM
same,TGI,MDA-N,> 100 µM
same,TGI,DU-145 prostate,> 100 µM
same,TGI,786-0 renal,> 100 µM
same,TGI,NCI-H23 lung,> 100 µM
same,TGI,HS 578T breast,> 100 µM
same,TGI,NCI/ADR-RES ovarian,> 100 µM
same,TGI,HCC-2998 colon,> 100 µM
same,TGI,NCI-H226 lung,> 100 µM
same,TGI,A549 NSCLC,> 100 µM
same,TGI,MDA-MB-231 breast,> 100 µM
same,TGI,CAKI-1 renal,> 100 µM
same,TGI,NCI-H460 lung,> 100 µM
same,TGI,OVCAR-5 ovarian,55.2 µM
same,TGI,MOLT-4 leukemia,> 100 µM
same,TGI,KM12 colon,> 100 µM
same,TGI,SF-268 CNS,> 100 µM
same,TGI,IGROV1 ovarian,> 100 µM
same,TGI,SF-295 CNS,> 100 µM
same,TGI,EKVX NSCLC,> 100 µM
same,TGI,LOX IMVI melanoma,> 100 µM
same,TGI,SK-MEL-2 melanoma,> 100 µM
same,TGI,UACC-257 melanoma,> 100 µM
same,TGI,HCT-15 colon,> 100 µM
same,TGI,MDA-MB-435,> 100 µM
same,TGI,OVCAR-3 ovarian,> 100 µM
same,TGI,SW-620 colon,> 100 µM
same,TGI,RPMI-8226 leukemia,> 100 µM
same,TGI,U251 CNS,> 100 µM
same,TGI,HOP-92 NSCLC,> 100 µM
same,TGI,M14 melanoma,> 100 µM
same,TGI,SK-MEL-28 melanoma,> 100 µM
same,TGI,PC-3 prostate,> 100 µM
same,TGI,NCI-H522 lung,> 100 µM
same,TGI,SF-539 CNS,> 100 µM
same,TGI,SNB-75 CNS,> 100 µM
same,TGI,BT-549 breast,> 100 µM
same,TGI,HT29 colon,> 100 µM
same,TGI,SNB-19 CNS,> 100 µM
CN(C)Cc1cc(N=Nc2ccc(Cl)cc2)ccc1OC(=O)c1ccccc1,TGI,SK-MEL-5 melanoma,28.8 µM
same,TGI,TK-10 renal,29.8 µM
same,TGI,OVCAR-8 ovarian,34.4 µM
same,TGI,CCRF-CEM leukemia,38.8 µM
same,TGI,HCT-116 colon,29.9 µM
same,TGI,OVCAR-4 ovarian,28.5 µM
same,TGI,COLO 205 colon,40.8 µM
same,TGI,UO-31 renal,25.2 µM
same,TGI,MALME-3M melanoma,31 µM
same,TGI,SR leukemia,31.8 µM
same,TGI,SN12C renal,28.2 µM
same,TGI,K-562 leukemia,35.8 µM
same,TGI,ACHN renal,28.7 µM
same,TGI,HL-60(TB) leukemia,43.7 µM
same,TGI,A498 renal,31.5 µM
same,TGI,HOP-62 NSCLC,26.5 µM
same,TGI,MDA-N,30.1 µM
same,TGI,DU-145 prostate,30.7 µM
same,TGI,786-0 renal,27.8 µM
same,TGI,NCI-H23 lung,34.4 µM
same,TGI,HS 578T breast,46.9 µM
same,TGI,NCI/ADR-RES ovarian,45.4 µM
same,TGI,HCC-2998 colon,31 µM
same,TGI,NCI-H226 lung,54.3 µM
same,TGI,A549 NSCLC,13.6 µM
same,TGI,MDA-MB-231 breast,28.6 µM
same,TGI,NCI-H460 lung,32.4 µM
same,TGI,OVCAR-5 ovarian,30.6 µM
same,TGI,RXF 393 renal,30.1 µM
same,TGI,MOLT-4 leukemia,26.1 µM
same,TGI,KM12 colon,29.6 µM
same,TGI,SF-268 CNS,59.9 µM
same,TGI,IGROV1 ovarian,25.9 µM
same,TGI,SF-295 CNS,28.7 µM
same,TGI,EKVX NSCLC,25.9 µM
same,TGI,LOX IMVI melanoma,27.6 µM
same,TGI,UACC-257 melanoma,35.2 µM
same,TGI,HCT-15 colon,29.1 µM
same,TGI,MDA-MB-435,29.3 µM
same,TGI,OVCAR-3 ovarian,32.3 µM
same,TGI,SW-620 colon,30.5 µM
same,TGI,RPMI-8226 leukemia,40.7 µM
same,TGI,U251 CNS,29.4 µM
same,TGI,HOP-92 NSCLC,11.1 µM
same,TGI,SK-MEL-28 melanoma,29.7 µM
same,TGI,PC-3 prostate,29 µM
same,TGI,NCI-H522 lung,26.5 µM
same,TGI,SF-539 CNS,34.5 µM
same,TGI,SNB-75 CNS,38.7 µM
same,TGI,BT-549 breast,47.8 µM
same,TGI,HT29 colon,27.5 µM
same,TGI,MCF7 breast,28.7 µM
same,TGI,SNB-19 CNS,29.8 µM
